Measured values: US20230271933A1, “HETEROCYCLIC IMMUNOMODULATOR” (Beijing Innocare Pharma Tech Co., Ltd., priority 2020, published 2023)

Assays:
[1] = system: NCI-H929 human myeloma cells; assay: Inhibition of the proliferation of NCI-H929 cells (luminescent cell viability, CTG); format: cell-based; details: 6 days, CellTiter-Glo
Method: The effect of the compounds of the present invention on the proliferation of NCI-H929 human myeloma cells was evaluated by using a luminescent cell viability test experiment.
The compound was dissolved and diluted to 5 mM in DMSO, and then serially diluted 4-fold in DMSO to a minimum concentration of 0.31 μM. Each concentration was further diluted 50-fold with RPMI 1640 medium (Thermo Fisher, Cat. No. 72400-047). If the IC50 value of the compound was relatively low, the initial concentration of the compound could be lowered.
NCI-H929 cells (Nanjing Cobioer, Cat. No. CBP60243) were cultured in RPMI 1640 complete medium [containing 10% FBS (GIBCO, Cat. No. 10099-141) and 100 units/mL penicillin-streptomycin (Thermo Fisher, Cat. No. 15140122)]. Cells (15000 cells/mL) were plated in 90 μL of the complete medium in a 96-well plate and cultured overnight, and then 10 μL of the compound solution was added into each well. The cells were cultured in an incubator at 37° C. and 5% CO2 for 6 days. Then the cell culture plate was taken out and balanced to room temperature according to the instruction of the CellTilter-Glo (CTG) kit (Promega, Cat. No. G7572). 50 μL CTG reagent was added for complete lysis, the plate was placed at room temperature for 10 minutes, and the luminescence signal was read with a microplate reader (EnVision, Perkin Elmer). The group containing 0.2% DMSO medium was used as 0% inhibition. The XLfit software was used to plot the compound inhibition curve and calculate the inhibitory IC50 value.

[2] = system: IL-2; assay: Stimulation of IL-2 secretion in anti-CD3-stimulated hPBMC (ELISA); format: cell-based, human; details: anti-CD3 antibody, 72 hours
Method: (§1) The immunomodulatory function of the compound of the present invention was evaluated by detecting its effect on the secretion amount of TNFα and IL-2 in cells from the human peripheral blood mononuclear cells (hPBMC) by the enzyme linked immunosorbent assay (ELISA) method.
(§2) The peripheral blood of healthy volunteers was collected by using EDTA anticoagulant tubes, and diluted with phosphate buffered saline (PBS) containing 2% fetal bovine serum (Gibco, Cat. No. 10099-141) in an equal volume ratio. 30 mL of the resulting diluted sample was transferred into a Sepmate-50 centrifuge tube (Stemcell, Cat. No. 86450) to which 15 mL of a density-gradient centrifugation liquid (Sigma, Cat. No. 10771) had been added in advance, and centrifuged at room temperature at 1200×g for 10 minutes. The liquid containing PBMC in the upper layer was transferred to a new 50-mL centrifuge tube, and centrifuged at room temperature at 300×g for 8 minutes. The supernatant was discarded, and the resulting PBMC was resuspended to 5×10^6/mL by using RPMI 1640 medium (Gibco, Cat. No. 72400-047). 80 μL of the resulting suspension was added to each well in a 96-well plate.
(§3) Each concentration was further diluted 50-fold with RPMI 1640 medium. 10 μL of each compound solution was added into the cells in the above 96-well plate. The 96-well plate was placed in an incubator, and the cells were cultured at 37° C. and 5% CO2 for 1 hour. 10 μL of LPS (Sigma, Cat. No. L-2880) with a concentration of 100 ng/mL was added, and the cells were continuously cultured in the incubator at 37° C. and 5% CO2 overnight. Supernatants were collected for the detection of TNFα.
The above-mentioned 96-well plate can also be placed in an incubator, and the cells were cultured at 37° C. and 5% CO2 for 1 hour. 10 μL of anti-CD3 antibody (Thermo Fisher, Cat. No. 14-0037-82) with a concentration of 500 ng/mL was added, and the cells were continuously cultured in the incubator at 37° C. and 5% CO2 for 72 hours. Supernatants were collected for the detection of IL-2.
(§4) TNFα and IL-2 were detected respectively according to each instruction of the ELISA kits (R&D, Cat. No. DY210 and DY202, respectively) to obtain the OD450 values for each well. The group containing 0.2% DMSO medium was used as 0% inhibition or stimulation. The XLfit software was used to plot the compound inhibition or stimulation curve and calculate the corresponding IC50 or EC50.

[3] = system: TNFα; assay: Inhibition of TNFα secretion in LPS-stimulated hPBMC (ELISA); format: cell-based; details: Homo sapiens, overnight, read-out: IC50 (nM) for the inhibition of the TNFa secretion
Method: as §1, §2, §3, §4

[4] = In vivo pharmacokinetic experiment in rats; details: male Sprague-Dawley rats, n = 3; for F: PO 5 mpk vs IV 1 mpk; for clearance / Vd / AUC(0-t) / Cmax: rat, plasma; for clearance / Vd: 1 mg/kg, IV 1 mpk; for Vd: read-out: VSS; for AUC(0-t) / Cmax: 5 mg/kg, PO 5 mpk
Method: The compound to be tested was dissolved in 5% DMA+20% Solutol+75% Saline vehicle to prepare a 0.5 mg/mL administration solution.
2 mL/kg of the administration solution was administered through the intravenous injection (IV) at a dose of 1 mg/kg to three fed male Sprague-Dawley rats, respectively. Blood samples were collected at 0.083, 0.25, 0.5, 1, 2, 4, 8 and 24 hours after administration. 10 mL/kg of the administration solution was administered by gavage (PO) at a dose of 5 mg/kg to other three fed male Sprague-Dawley rats, respectively. Blood samples were collected at 0.25, 0.5, 1, 2, 4, 8 and 24 hours after administration.
The concentration of the compound to be tested in plasma was obtained with the LC-MS/MS quantitative analysis with an API-4500 mass spectrometer, and the limit of quantitation (LOQ) for the plasma was 1 ng/mL.

SMILES	IC50 ([1]; Homo sapiens, NCI-H929, 144 h) [nM]	EC50 ([2]; Homo sapiens) [nM]	IC50 [3] [nM]	other results
CC(c1ccc(COc2cccc3c2CN([C@H]2CCC(=O)NC2=O)C3=O)cc1)N1CC2CC1CO2 (single isomer, unassigned) [Compound 18]	3.1	11	–	–
CC(c1ccc(COc2cccc3c2CN([C@H]2CCC(=O)NC2=O)C3=O)cc1)N1CC2CC1CO2 (single isomer, unassigned) [Compound 19]	–	–	0.8	IC50 [1]: 3.8 nM; EC50 [2]: 11 nM
CC(c1ccc(COc2cccc3c2CN(C2CCC(=O)NC2=O)C3=O)cc1)N1CCOCC1 (stereo not drawn) [Compound 1, 3-(4-((4-(1-morpholinoethyl)benzyl)oxy)-1-oxoisoindolin-2-yl)piperidine-2,6-dione]	7.7	–	–	–
O=C1CCC(N2Cc3c(OCc4ccc(C5(N6CCOCC6)CC5)cc4)cccc3C2=O)C(=O)N1 (stereo not drawn) [Compound 2, 3-(4-((4-(1-morpholinocyclopropyl)benzyl)oxy)-1-oxoisoindolin-2-yl)piperidine-2,6-dione]	35	10	7.8	–
C[C@H](c1ccc(COc2cccc3c2CN(C2CCC(=O)NC2=O)C3=O)cc1)N1CCOCC1 (stereo partly drawn) [Compound 3, 3-(4-((4-((R)-1-morpholinoethyl)benzyl)oxy)-1-oxoisoindolin-2-yl)piperidine-2,6-dione]	7	8	1.1	F [4]: 20%; clearance [4]: 61 mL/min/kg; Vd [4]: 4.2 L/kg; AUC(0-t) [4]: 270 ng·h/mL; Cmax [4]: 105 ng/mL
C[C@@H](c1ccc(COc2cccc3c2CN(C2CCC(=O)NC2=O)C3=O)cc1)N1CCOCC1 (stereo partly drawn) [Compound 4, 3-(4-((4-((S)-1-morpholinoethyl)-benzyl)oxy)-1-oxoisoindolin-2-yl)piperidine-2,6-dione]	5	4.1	0.9	–
CC(C)(c1ccc(COc2cccc3c2CN([C@H]2CCC(=O)NC2=O)C3=O)cc1)N1CCOCC1 [Compound 5, (S)-3-(4-((4-(2-morpholinopropan-2-yl)benzyl)oxy)-1-oxoisoindolin-2-yl)piperidine-2,6-dione]	7.8	–	–	F [4]: 4%; clearance [4]: 110 mL/min/kg; Vd [4]: 3.3 L/kg; AUC(0-t) [4]: 8.8 ng·h/mL; Cmax [4]: 1.6 ng/mL
N#CC(c1ccc(COc2cccc3c2CN([C@H]2CCC(=O)NC2=O)C3=O)cc1)N1CCOCC1 (stereo partly drawn) [Compound 10, 2-(4-(((2-((S)-2,6-dioxopiperidin-3-yl)-1-oxoisoindolin-4-yl)oxy)methyl)phenyl)-2-morpholinoacetonitrile]	11	46	2.1	–
C[C@H](c1ccc(COc2cccc3c2CN([C@H]2CCC(=O)NC2=O)C3=O)cc1)N1CCN(C(=O)C2CC2)CC1 [Compound 11, (S)-3-(4-((4-((R)-1-(4-(cyclopropanecarbonyl)piperazin-1-yl)ethyl)benzyl)oxy)-1-oxoisoindolin-2-yl)piperidine-2,6-dione]	2.2	–	–	–
C[C@H](c1ccc(COc2cccc3c2CN([C@H]2CCC(=O)NC2=O)C3=O)cc1)N1CCN(S(C)(=O)=O)CC1 [Compound 13, (S)-3-(4-((4-((R)-1-(4-(methylsulfonyl)piperazin-1-yl)ethyl)benzyl)oxy)-1-oxoisoindolin-2-yl)piperidine-2,6-dione]	1.2	–	–	–
C[C@H](c1ccc(COc2cccc3c2CN([C@H]2CCC(=O)NC2=O)C3=O)cc1)N1CCN(C)CC1 [Compound 14, (S)-3-(4-((4-((R)-1-(4-methylpiperazin-1-yl)ethyl)benzyl)oxy)-1-oxoisoindolin-2-yl)piperidine-2,6-dione]	1.4	–	–	–

More lines, main results first:

IC50 ([1]; Homo sapiens, NCI-H929, 144 h) [nM]	EC50 ([2]; Homo sapiens) [nM]	IC50 [3] [nM]	SMILES	other results
0.2	3.2	2.8	C[C@@H](c1ccc(COc2cccc3c2CN([C@H]2CCC(=O)NC2=O)C3=O)cc1)N1CCN(c2ccc(C#N)cc2F)CC1 [Compound 7, 4-(4-((S)-1-(4-(((2-((S)-2,6-dioxopiperidin-3-yl)-1-oxoisoindolin-4-yl)oxy)methyl)phenyl)-ethyl)piperazin-1-yl)-3-fluorobenzonitrile]	F [4]: 19%; clearance [4]: 13 mL/min/kg; Vd [4]: 2.4 L/kg; AUC(0-t) [4]: 1200 ng·h/mL; Cmax [4]: 121 ng/mL
0.5	4	–	CC(C)(c1ccc(COc2cccc3c2CN([C@H]2CCC(=O)NC2=O)C3=O)cc1)N1CCN(c2ccc(C#N)cc2F)CC1 [Compound 8, (S)-4-(4-(2-(4-(((2-(2,6-dioxopiperidin-3-yl)-1-oxoisoindolin-4-yl)oxy)methyl)phenyl)-prop-2-yl)piperazin-1-yl)-3-fluorobenzonitrile]	–
1.1	–	–	N#Cc1ccc(N2CCN(C3(c4ccc(COc5cccc6c5CN([C@H]5CCC(=O)NC5=O)C6=O)cc4)CC3)CC2)c(F)c1 [Compound 9, (S)-4-(4-(1-(4-(((2-(2,6-dioxopiperidin-3-yl)-1-oxoisoindolin-4-yl)oxy)methyl)phenyl)-cyclopropyl)piperazin-1-yl)-3-fluorobenzonitrile]	–
0.3	–	–	C[C@H](c1ccc(COc2cccc3c2CN([C@H]2CCC(=O)NC2=O)C3=O)cc1)N1CCN(C2CC2)CC1 [Compound 12, (S)-3-(4-((4-((R)-1-(4-cyclopropylpiperazin-1-yl)ethyl)benzyl)oxy)-1-oxoisoindolin-2-yl)piperidine-2,6-dione]	–
0.4	19	1.7	C[C@H](c1ccc(COc2cccc3c2CN([C@H]2CCC(=O)NC2=O)C3=O)cc1)N1CCN(c2ccncn2)CC1 [Compound 15, (S)-3-(1-oxo-4-((4-((R)-1-(4-(pyrimidin-4-yl)piperazin-1-yl)ethyl)benzyl)oxy)isoindolin-2-yl)piperidine-2,6-dione]	–
0.3	–	3.7	C[C@H](c1ccc(COc2cccc3c2CN([C@H]2CCC(=O)NC2=O)C3=O)cc1)N1CCN(c2ccc(F)cc2F)CC1 [Compound 17, (S)-3-(4-((4-((R)-1-(4-(2,4-difluorophenyl)piperazin-1-yl)ethyl)benzyl)oxy)-1-oxoisoindolin-2-yl)piperidine-2,6-dione]	–
0.1	1.9	–	C[C@H](c1ccc(COc2cccc3c2CN([C@H]2CCC(=O)NC2=O)C3=O)cc1)N1CCN(c2ccncc2F)CC1 [Compound 20, (S)-3-(4-((4-((R)-1-(4-(3-fluoropyridin-4-yl)piperazin-1-yl)ethyl)benzyl)oxy)-1-oxoisoindolin-2-yl)piperidine-2,6-dione]	–
